Laboratory results reported in patent US20140066431A1, “Benzoxazepines as Inhibitors of PI3K/mTOR and Methods of Their Use and Manufacture” (Exelixis, Inc., priority 2010, published 2014).

Target: mTOR/GbL/Raptor (mTORC1) (Homo sapiens, UniProt P42345)
Test: mTOR/GbL/Raptor (mTORC1) ELISA assay
Type: biochemical
Conditions: 0.2 nM mTORC1, 10 μM ATP, 50 nM 4E-BP1
Method: The measurement of mTORC1 enzyme activity was performed in an ELISA assay format following the phosphorylation of 4E-BP1 protein. All experiments were performed in the 384-well format. Generally, 0.5 μL DMSO containing varying concentrations of the test compound was mixed with 15 μL enzyme solution. Kinase reactions were initiated with the addition of 15 μL of substrates-containing solution. The assay conditions were as follows; 0.2 nM mTORC1, 10 μM ATP and 50 nM NHis-tagged 4E-BP1 in 20 mM Hepes, pH 7.2, 1 mM DTT, 50 mM NaCl, 10 mM MnCl2, 0.02 mg/mL BSA, 0.01% CHAPS, 50 mM β-glycerophosphate. Following an incubation of 120 minutes at ambient temperature, 20 μL of the reaction volume was transferred to a Ni-Chelate-coated 384-well plate. The binding step of the 4E-BP1 protein proceeded for 60 minutes, followed by washing 4 times each with 50 μL of Tris-buffered saline solution (TBS). Anti-phospho-4E-BP1 rabbit-IgG (20 μL, 1:5000) in 5% BSA-TBST (0.2% Tween-20 in TBS) was added and further incubated for 60 minutes. Incubation with a secondary HRP-tagged anti-IgG was similarly performed after washing off the primary antibody (4 washes of 50 μL). Following the final wash step with TBST, 20 μL of SuperSignal ELISA Femto (Pierce Biotechnology) was added and the luminescence measured using an EnVision plate reader.

SMILES	IC50 (mTORC1 ELISA)
CCOC(=O)CN(Cc1ccccc1)C(=O)N1CCOc2ccc(-c3ccc4nc(C)[nH]c4c3)cc2C1 [compound 151, ethyl N-{[7-[2-methyl-1H-benzimidazol-6-yl)-2,3-dihydro-1,4-benzoxazepin-4(5H)-yl]carbonyl}-N-(phenylmethyl)glycinate]	not active
Cc1nc2ccc(-c3ccc4c(c3)CN(C(=O)N3CC[S+]([O-])CC3)CCO4)cc2[nH]1 [compound 101, 7-(2-methyl-1H-benzimidazol-6-yl)-4-[(1-oxidothiomorpholin-4-yl)carbonyl]-2,3,4,5-tetrahydro-1,4-benzoxazepine]	not active
Cc1nc2ccc(-c3ccc4c(c3)CN(C(=O)N3CCN(c5ccc([N+](=O)[O-])cc5)CC3)CCO4)cc2[nH]1 [compound 168, 7-(2-methyl-1H-benzimidazol-6-yl)-4-{[4-(4-nitrophenyl)piperazin-1-yl]carbonyl}-2,3,4,5-tetrahydro-1,4-benzoxazepine]	not active
Cc1nc2ccc(-c3ccc4c(c3)CN(C(=O)N3CCN(C)CC3c3ccccc3)CCO4)cc2[nH]1 (centres unmarked) [compound 144, 7-(2-methyl-1H-benzimidazol-6-yl)-4-[(4-methyl-2-phenylpiperazin-1-yl)carbonyl]-2,3,4,5-tetrahydro-1,4-benzoxazephin]	not active
Cc1nc2ccc(-c3ccc4c(c3)CN(C(=O)N3CCC(C5CCNCC5)CC3)CCO4)cc2[nH]1 [compound 71, 1-{[7-(2-methyl-1H-benzimidazol-6-yl)-2,3-dihydro-1,4-benzoxazepin-4(5H)-yl]carbonyl}-4,4′-bipiperidine]	not active
Cc1nc2ccc(-c3ccc4c(c3)CN(C(=O)N3CCCC3)CCO4)cc2[nH]1 [compound 87, 7-(2-methyl-1H-benzimidazol-6-yl)-4-(pyrrolidin-1-ylcarbonyl)-2,3,4,5-tetrahydro-1,4-benzoxazepine]	not active
Cc1nc2ccc(-c3ccc4c(c3)CN(C(=O)N3[C@@H]5CC[C@H]3C[C@@H](CO)C5)CCO4)cc2[nH]1 [compound 112, (8-{[7-(2-methyl-1H-benzimidazol-6-yl)-2,3-dihydro-1,4-benzoxazepin-4(5H)-yl]carbonyl}-8-azabicyclo[3.2.1]oct-3-(endo)-yl)methanol]	not active
Cc1nc2ccc(-c3ccc4c(c3)CN(C(=O)N3CC[C@H](O)C3)CCO4)cc2[nH]1 [compound 82, (3S)-1-{[7-(2-methyl-1H-benzimidazol-6-yl)-2,3-dihydro-1,4-benzoxazepin-4(5H)-yl]carbonyl}pyrrolidin-3-ol]	not active
